CC(=O)Nc1cccc(N)c1
solubility (mole fraction)
Details	278.15 K	283.15 K	288.15 K	293.15 K	298.15 K	303.15 K	308.15 K	313.15 K	318.15 K	323.15 K
in DMF	0.029	0.043	0.061	0.088	0.124	0.166	0.22	0.285	0.358	0.44
in THF	0.108	0.146	0.194	0.256	0.328	0.404	0.487	0.568	0.653	0.729
in acetone	0.05	0.063	0.081	0.101	0.125	0.153	0.186	0.225	0.27	0.319
in acetonitrile	0.0283	0.0322	0.0382	0.0453	0.0535	0.0644	0.0752	0.0908	0.108	0.128
in ethyl acetate	0.033	0.038	0.043	0.049	0.055	0.063	0.074	0.085	0.099	0.114
in isopropanol	0.021	0.031	0.048	0.064	0.084	0.108	0.138	0.174	0.218	0.266
in methanol	0.049	0.074	0.105	0.148	0.207	0.274	0.351	0.44	0.53	0.613
in water	0.025	0.039	0.06	0.091	0.133	0.19	0.262	0.347	0.439	0.541

— BigSolDB 2.1
